Assay results: patent US9050341B2, “Methods of treating drug resistant and other tumors by administering 6,7-dialkoxy quinazoline derivatives” (NATCO PHARMA LIMITED, priority 2009, dated 2015)

Assays:
Experiment in all cases: KinomeScan kinase profiling
Format in all cases: binding
FLT3 (N8411) = molecular target: T1, FLT3 (N8411) (Homo sapiens, UniProt P36888, N841I)
T1 construct: host or cells: E. coli host derived from BL21, infected with T7 phage
Summary of the method: (§1)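 Kinases were expressed as T7 phage fusions in a BL21-derived E. coli host and the cleared lysates were used. Ligand beads were blocked with biotin and buffer (1% BSA, 0.05% Tween 20, 1 mM DTT). Compounds came from 40× DMSO stocks, and phage in the eluates was titred by qPCR.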

VEGFR2 = molecular target: T2, VEGFR2 (Homo sapiens, UniProt P35968)
T2 construct: purchased Ambit Biosciences Corp (KinomeScan); host or cells: E. coli host derived from the BL21 strain (T7 phage lysate)
Summary of the method: as §1

[1] = molecular target: T3, EGFR (L747-T751del, Sins) (Homo sapiens, UniProt P00533, DEL747-750/T751S)
T3 construct: host or cells: E. coli host derived from BL21, T7 phage lysate
Summary of the method: as §1

PDGFRB = molecular target: T4, PDGFRB (Homo sapiens, UniProt P09619)
T4 construct: host or cells: E. coli host derived from the BL21 strain, infected with T7 phage
T4 sequence (P09619 33-1106): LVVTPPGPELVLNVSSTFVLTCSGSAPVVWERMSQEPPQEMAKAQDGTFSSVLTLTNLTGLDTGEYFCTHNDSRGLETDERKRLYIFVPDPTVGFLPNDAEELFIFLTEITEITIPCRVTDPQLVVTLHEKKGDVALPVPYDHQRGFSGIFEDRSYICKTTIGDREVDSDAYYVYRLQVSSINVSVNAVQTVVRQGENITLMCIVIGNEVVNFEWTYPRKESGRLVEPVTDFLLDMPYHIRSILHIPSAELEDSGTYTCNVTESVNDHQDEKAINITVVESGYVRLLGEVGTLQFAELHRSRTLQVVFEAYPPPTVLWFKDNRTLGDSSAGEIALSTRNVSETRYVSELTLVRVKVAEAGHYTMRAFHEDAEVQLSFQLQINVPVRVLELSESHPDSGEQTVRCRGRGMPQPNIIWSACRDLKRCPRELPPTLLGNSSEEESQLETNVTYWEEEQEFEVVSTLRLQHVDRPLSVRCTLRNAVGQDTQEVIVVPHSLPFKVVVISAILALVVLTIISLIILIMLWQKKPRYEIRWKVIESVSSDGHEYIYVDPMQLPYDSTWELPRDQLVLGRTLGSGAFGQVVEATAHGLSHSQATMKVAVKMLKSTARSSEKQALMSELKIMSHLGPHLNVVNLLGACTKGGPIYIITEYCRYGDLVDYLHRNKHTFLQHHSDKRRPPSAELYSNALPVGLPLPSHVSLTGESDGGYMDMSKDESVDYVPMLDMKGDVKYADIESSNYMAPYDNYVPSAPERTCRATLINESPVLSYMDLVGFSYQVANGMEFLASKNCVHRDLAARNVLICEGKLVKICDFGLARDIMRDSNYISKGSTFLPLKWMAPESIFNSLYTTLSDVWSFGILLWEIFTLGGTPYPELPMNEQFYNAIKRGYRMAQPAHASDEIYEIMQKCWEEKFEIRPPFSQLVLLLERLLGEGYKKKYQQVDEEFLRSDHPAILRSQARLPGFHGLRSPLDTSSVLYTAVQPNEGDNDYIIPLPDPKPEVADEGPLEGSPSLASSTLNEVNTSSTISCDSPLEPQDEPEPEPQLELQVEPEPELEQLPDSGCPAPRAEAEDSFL
Summary of the method: as §1

BRK = molecular target: T5, BRK (Homo sapiens, UniProt Q13882)
T5 construct: purchased Ambit Biosciences Corp (KinomeScan); host or cells: E. coli host derived from the BL21 strain, T7 phage
Summary of the method: as §1

SLK = molecular target: T6, SLK (Homo sapiens, UniProt Q9H2G2)
T6 construct: host or cells: E. coli host derived from the BL21 strain, T7 phage lysate
T6 sequence (Q9H2G2 whole entry): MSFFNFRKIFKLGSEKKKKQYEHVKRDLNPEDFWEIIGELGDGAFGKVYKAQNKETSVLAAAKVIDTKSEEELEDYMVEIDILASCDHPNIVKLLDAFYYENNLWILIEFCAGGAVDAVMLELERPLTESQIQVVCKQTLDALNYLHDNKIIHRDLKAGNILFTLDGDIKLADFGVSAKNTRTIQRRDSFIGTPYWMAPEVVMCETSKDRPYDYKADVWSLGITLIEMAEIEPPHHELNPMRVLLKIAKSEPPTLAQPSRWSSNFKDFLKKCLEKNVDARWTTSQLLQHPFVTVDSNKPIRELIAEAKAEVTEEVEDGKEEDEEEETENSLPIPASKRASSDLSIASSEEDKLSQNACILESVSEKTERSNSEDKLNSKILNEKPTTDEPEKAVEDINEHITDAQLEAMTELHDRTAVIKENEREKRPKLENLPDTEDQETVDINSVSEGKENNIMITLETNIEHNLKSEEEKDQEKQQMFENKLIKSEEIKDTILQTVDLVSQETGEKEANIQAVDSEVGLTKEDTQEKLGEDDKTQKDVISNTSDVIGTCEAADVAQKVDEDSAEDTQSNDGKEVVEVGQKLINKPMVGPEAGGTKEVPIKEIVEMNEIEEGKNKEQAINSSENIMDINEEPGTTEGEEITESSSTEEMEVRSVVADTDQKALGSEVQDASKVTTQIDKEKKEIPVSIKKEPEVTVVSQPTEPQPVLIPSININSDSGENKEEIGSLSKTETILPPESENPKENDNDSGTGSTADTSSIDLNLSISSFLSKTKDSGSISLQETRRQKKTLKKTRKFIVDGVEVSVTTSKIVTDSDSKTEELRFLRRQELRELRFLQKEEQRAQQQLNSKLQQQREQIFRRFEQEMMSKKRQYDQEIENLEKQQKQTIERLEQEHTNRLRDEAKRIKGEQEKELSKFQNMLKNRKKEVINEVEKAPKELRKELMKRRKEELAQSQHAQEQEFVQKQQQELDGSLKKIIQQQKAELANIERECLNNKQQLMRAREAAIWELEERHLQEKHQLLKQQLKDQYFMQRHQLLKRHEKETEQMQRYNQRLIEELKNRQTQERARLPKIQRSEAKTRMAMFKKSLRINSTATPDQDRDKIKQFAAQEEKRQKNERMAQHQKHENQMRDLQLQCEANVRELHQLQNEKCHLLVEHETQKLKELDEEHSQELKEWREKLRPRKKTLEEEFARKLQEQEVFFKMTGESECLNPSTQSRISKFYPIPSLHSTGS
Summary of the method: as §1

FLT3 (K663Q) = molecular target: T7, FLT3 (K663Q) (Homo sapiens, UniProt P36888, K663Q)
T7 construct: host or cells: E. coli host derived from BL21, infected with T7 phage
Summary of the method: as §1

BMX = molecular target: T8, BMX (Homo sapiens, UniProt P51813)
T8 construct: purchased Ambit Biosciences Corp (KinomeScan); host or cells: E. coli host derived from the BL21 strain, T7 phage
Summary of the method: as §1

AMPK-alpha1 = molecular target: T9, AMPK-alpha1 (Homo sapiens, UniProt Q13131)
T9 construct: host or cells: E. coli host derived from BL21 (T7 phage lysate)
T9 sequence (Q13131 whole entry): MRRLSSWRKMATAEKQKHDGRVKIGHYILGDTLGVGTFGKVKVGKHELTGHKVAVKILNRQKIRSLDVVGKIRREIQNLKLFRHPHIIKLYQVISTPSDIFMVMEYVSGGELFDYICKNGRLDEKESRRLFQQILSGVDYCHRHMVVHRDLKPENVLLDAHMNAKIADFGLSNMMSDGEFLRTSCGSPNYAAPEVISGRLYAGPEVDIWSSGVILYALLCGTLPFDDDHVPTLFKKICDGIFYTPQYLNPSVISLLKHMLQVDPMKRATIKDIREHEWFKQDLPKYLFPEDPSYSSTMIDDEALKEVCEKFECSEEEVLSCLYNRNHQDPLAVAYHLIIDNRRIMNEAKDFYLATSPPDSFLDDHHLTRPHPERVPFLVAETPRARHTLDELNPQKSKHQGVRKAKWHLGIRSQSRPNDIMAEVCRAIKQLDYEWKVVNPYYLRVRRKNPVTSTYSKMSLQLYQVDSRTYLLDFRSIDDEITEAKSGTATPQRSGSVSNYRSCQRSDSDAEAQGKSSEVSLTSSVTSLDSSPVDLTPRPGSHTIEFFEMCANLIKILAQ
Summary of the method: as §1

SRPK2 = molecular target: T10, SRPK2 (Homo sapiens, UniProt P78362)
T10 construct: host or cells: E. coli host derived from the BL21 strain, T7 phage lysate
Summary of the method: as §1

KIT (V559D) = molecular target: T11, KIT (V559D) (Homo sapiens, UniProt P10721, V559D)
T11 construct: host or cells: T7 phage in E. coli host derived from BL21
Summary of the method: as §1

PIK3CB = molecular target: T12, PIK3CB (Homo sapiens, UniProt P42338)
T12 construct: host or cells: E. coli host derived from the BL21 strain, infected with T7 phage
Summary of the method: as §1

MLK1 = molecular target: T13, MLK1 (Homo sapiens, UniProt P80192)
T13 construct: host or cells: T7 phage in E. coli host derived from BL21
T13 sequence (P80192 whole entry): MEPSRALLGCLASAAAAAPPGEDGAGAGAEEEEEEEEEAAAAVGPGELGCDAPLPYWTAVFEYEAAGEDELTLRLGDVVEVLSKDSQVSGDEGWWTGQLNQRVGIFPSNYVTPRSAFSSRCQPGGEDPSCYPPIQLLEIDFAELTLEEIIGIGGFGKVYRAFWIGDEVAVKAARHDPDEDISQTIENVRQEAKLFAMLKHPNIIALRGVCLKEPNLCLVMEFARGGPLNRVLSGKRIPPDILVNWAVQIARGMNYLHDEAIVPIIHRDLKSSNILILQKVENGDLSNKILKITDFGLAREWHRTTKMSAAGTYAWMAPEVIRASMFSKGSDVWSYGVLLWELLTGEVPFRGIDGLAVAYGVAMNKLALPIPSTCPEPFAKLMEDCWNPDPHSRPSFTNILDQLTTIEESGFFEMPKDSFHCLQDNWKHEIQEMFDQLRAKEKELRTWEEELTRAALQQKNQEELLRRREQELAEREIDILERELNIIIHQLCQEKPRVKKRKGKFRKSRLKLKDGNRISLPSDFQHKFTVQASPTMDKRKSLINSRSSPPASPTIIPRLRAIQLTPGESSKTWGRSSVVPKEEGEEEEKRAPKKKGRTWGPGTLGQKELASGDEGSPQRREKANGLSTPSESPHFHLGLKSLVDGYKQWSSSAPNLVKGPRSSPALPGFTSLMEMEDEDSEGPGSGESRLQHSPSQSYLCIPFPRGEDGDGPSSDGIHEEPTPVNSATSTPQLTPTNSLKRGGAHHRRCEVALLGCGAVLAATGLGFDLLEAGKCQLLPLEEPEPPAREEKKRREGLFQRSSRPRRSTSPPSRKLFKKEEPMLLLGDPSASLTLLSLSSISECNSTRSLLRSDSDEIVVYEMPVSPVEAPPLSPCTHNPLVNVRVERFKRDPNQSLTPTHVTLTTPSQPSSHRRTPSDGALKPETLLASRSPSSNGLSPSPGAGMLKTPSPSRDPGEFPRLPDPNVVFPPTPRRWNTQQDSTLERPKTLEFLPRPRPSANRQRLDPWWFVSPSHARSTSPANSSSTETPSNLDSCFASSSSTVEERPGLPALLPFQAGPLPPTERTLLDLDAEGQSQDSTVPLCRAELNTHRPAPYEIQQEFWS
Summary of the method: as §1

NEK7 = molecular target: T14, NEK7 (Homo sapiens, UniProt Q8TDX7)
T14 construct: host or cells: T7 phage in E. coli host derived from BL21
T14 sequence (Q8TDX7 whole entry): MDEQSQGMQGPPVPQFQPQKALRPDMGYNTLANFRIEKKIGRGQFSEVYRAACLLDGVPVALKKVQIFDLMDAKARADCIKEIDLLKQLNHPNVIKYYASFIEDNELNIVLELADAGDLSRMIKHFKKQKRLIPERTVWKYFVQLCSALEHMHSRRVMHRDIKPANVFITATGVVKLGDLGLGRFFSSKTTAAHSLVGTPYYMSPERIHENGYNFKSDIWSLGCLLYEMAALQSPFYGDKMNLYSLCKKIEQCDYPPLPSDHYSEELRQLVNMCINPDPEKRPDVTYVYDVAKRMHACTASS
Summary of the method: as §1

EGFR (S752-1759del) = molecular target: T15, EGFR (S752-1759del) (Homo sapiens, UniProt P00533, DEL752-759)
T15 construct: host or cells: E. coli host derived from BL21, T7 phage lysate
Summary of the method: as §1

p38-delta = molecular target: T16, p38-delta (Homo sapiens, UniProt O15264)
T16 construct: host or cells: E. coli host derived from the BL21 strain, infected with T7 phage
Summary of the method: as §1

ERK5 = molecular target: T17, ERK5 (Homo sapiens, UniProt Q13164)
T17 construct: host or cells: E. coli host derived from BL21, T7 phage lysate
Summary of the method: as §1

PAK4 = molecular target: T18, PAK4 (Homo sapiens, UniProt O96013)
T18 construct: host or cells: E. coli host derived from the BL21 strain, infected with T7 phage
Summary of the method: as §1

LOK = molecular target: T19, LOK (Homo sapiens, UniProt O94804)
T19 construct: host or cells: E. coli derived from BL21, infected with T7 phage
Summary of the method: as §1

ABL1 (E255K) = molecular target: T20, ABL1 (E255K) (Homo sapiens, UniProt P00519, E255K)
T20 construct: host or cells: E. coli host derived from BL21 (T7 phage lysate)
Summary of the method: as §1

MST3 = molecular target: T21, MST3 (Homo sapiens, UniProt Q9Y6E0)
T21 construct: host or cells: T7 phage in E. coli host derived from BL21
T21 sequence (Q9Y6E0 whole entry): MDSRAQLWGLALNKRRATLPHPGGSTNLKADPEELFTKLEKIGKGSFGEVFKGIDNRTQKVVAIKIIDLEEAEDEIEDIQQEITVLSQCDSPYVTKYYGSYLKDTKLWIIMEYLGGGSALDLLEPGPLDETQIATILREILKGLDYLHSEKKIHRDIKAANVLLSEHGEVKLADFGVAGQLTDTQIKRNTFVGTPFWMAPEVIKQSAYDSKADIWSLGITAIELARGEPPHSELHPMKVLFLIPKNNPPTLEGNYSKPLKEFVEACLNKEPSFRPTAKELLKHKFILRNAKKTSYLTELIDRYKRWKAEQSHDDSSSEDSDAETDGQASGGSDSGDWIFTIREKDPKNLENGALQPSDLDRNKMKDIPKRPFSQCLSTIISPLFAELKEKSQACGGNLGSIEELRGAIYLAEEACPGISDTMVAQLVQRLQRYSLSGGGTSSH
Summary of the method: as §1

GAK = molecular target: T22, GAK (Homo sapiens, UniProt O14976)
T22 construct: host or cells: E. coli host derived from BL21, infected with T7 phage
Summary of the method: as §1

PHKG2 = molecular target: T23, PHKG2 (Homo sapiens, UniProt P15735)
T23 construct: host or cells: E. coli host derived from the BL21 strain, infected with T7 phage
Summary of the method: as §1

C#Cc1cccc(Nc2ncnc3cc(OC)c(OCCCN4CCOCC4)cc23)c1 [NRC-2694, N-(3-ethylnylphenyl)-7-methoxy-6-[3-(4-morpholinyl)propoxy]-4-quinazolinamine]
% Ctrl @ 10000 nM (FLT3 (N8411)): 16 % Ctrl
% Ctrl @ 10000 nM (VEGFR2): 95 % Ctrl
% Ctrl @ 10000 nM [1]: 0 % Ctrl
% Ctrl @ 10000 nM (PDGFRB): 10 % Ctrl
% Ctrl @ 10000 nM (BRK): 46 % Ctrl
% Ctrl @ 10000 nM (SLK): 0.3 % Ctrl
% Ctrl @ 10000 nM (FLT3 (K663Q)): 56 % Ctrl
% Ctrl @ 10000 nM (BMX): 73 % Ctrl
% Ctrl @ 10000 nM (AMPK-alpha1): 50 % Ctrl
% Ctrl @ 10000 nM (SRPK2): 73 % Ctrl
% Ctrl @ 10000 nM (KIT (V559D)): 17 % Ctrl
% Ctrl @ 10000 nM (PIK3CB): 100 % Ctrl
% Ctrl @ 10000 nM (MLK1): 100 % Ctrl
% Ctrl @ 10000 nM (NEK7): 78 % Ctrl
% Ctrl @ 10000 nM (EGFR (S752-1759del)): 0 % Ctrl
% Ctrl @ 10000 nM (p38-delta): 100 % Ctrl
% Ctrl @ 10000 nM (ERK5): 90 % Ctrl
% Ctrl @ 10000 nM (PAK4): 80 % Ctrl
% Ctrl @ 10000 nM (LOK): 0 % Ctrl
% Ctrl @ 10000 nM (ABL1 (E255K)): 80 % Ctrl
% Ctrl @ 10000 nM (MST3): 42 % Ctrl
% Ctrl @ 10000 nM (GAK): 0.95 % Ctrl
% Ctrl @ 10000 nM (PHKG2): 59 % Ctrl
